Converted amounts (≈) assume the structure as drawn. Where two headings read alike, the source gives them in different places.
Columns and labels:
Gardnerella vaginalis = assay: Broth macrodilution MIC and MBC, clinical isolates; details: 2 strains
[1] = test system: Methicillin-resistant Staphylococcus aureus; assay: Broth macrodilution MIC and MBC, clinical isolates
[2] = test system: Vancomycin-resistant E. faecalis; assay: Broth macrodilution MIC and MBC, clinical isolates; details: 2 strains
[3] = test system: Enterobacter cloacae ATCC 13047; assay: Disk diffusion susceptibility testing
[4] = test system: Micrococcus luteus Presque Isle 456; assay: Broth macrodilution MIC and MBC, reference strains
R. equi = assay: Broth macrodilution MIC and MBC, clinical isolates; details: 3 strains
Nocardia asteroides = assay: Broth macrodilution MIC and MBC, clinical isolates; details: clinical isolate, 1 strain
[5] = test system: Micrococcus luteus Presque Isle 456; assay: Disk diffusion susceptibility testing
Lactobacillus spp. = assay: Broth macrodilution MIC and MBC, clinical isolates; details: clinical isolate, 1 strain
S. aureus ATCC 29213 = assay: Effect of pH on broth macrodilution MICs; type: cell-based, Staphylococcus aureus
Invasive S. pneumoniae = assay: Broth macrodilution MIC and MBC, clinical isolates
Listeria monocytogenes = assay: Broth macrodilution MIC and MBC, clinical isolates; details: 3 strains
C. sputi = assay: Broth macrodilution MIC and MBC, clinical isolates; details: clinical isolate, 1 strain
[6] = test system: Streptococcus pneumoniae ATCC 6303; assay: Broth macrodilution MIC and MBC, reference strains; details: ATCC6303
[7] = test system: Listeria monocytogenes, clinical isolate; assay: Effect of pH on broth macrodilution MICs; type: cell-based
B. circulans = assay: Broth macrodilution MIC and MBC, clinical isolates; details: clinical isolate, 1 strain
[8] = test system: Corynebacterium diphtheriae; assay: Broth macrodilution MIC and MBC, clinical isolates; details: 3 strains
[9] = test system: Stenotrophomonas maltophilia ATCC 13637; assay: Disk diffusion susceptibility testing
[10] = pH 6, range of 3 determinations
[11] = pH 8, range of 3 determinations

Compound: CC(=O)O[C@H]1CC[C@@]2(C)[C@@H](CC[C@@H]3[C@@H]2CC[C@]2(C)[C@@H](NC(=O)[C@@H]4CCCN4)CC[C@@H]32)C1
- MBC Range (Gardnerella vaginalis): 8 µg/mL (≈ 18.6 µM)
- MIC Range (Gardnerella vaginalis; read after 48 h): 4 µg/mL (≈ 9.29 µM)
- MIC50 ([1]; Staphylococcus aureus): 8 µg/mL (≈ 18.6 µM)
- MIC90 ([1]; Staphylococcus aureus): 8 µg/mL (≈ 18.6 µM)
- MBC ([1]; Staphylococcus aureus, read-out: MBC 50%): 16 µg/mL (≈ 37.2 µM)
- MBC ([1]; Staphylococcus aureus, read-out: MBC 90%): > 64 µg/mL
- MIC Range ([1]; clinical isolates, 22 strains): 4 to 8 µg/mL
- share of strains with MBC/MIC ratios ≦2 ([1]; methicillin-resistant S. aureus): 73%
- MBC Range [2]: 16 to 64 µg/mL
- MIC Range [2]: 8 to 16 µg/mL
- MIC [3]: >100 μg/disk
- MBC [4]: 64 µg/mL (≈ 149 µM)
- MIC [4]: 8 µg/mL (≈ 18.6 µM)
- MBC Range (R. equi): 16 to 32 µg/mL
- MIC Range (R. equi; read after 48 h): 4 to 8 µg/mL
- MBC Range (Nocardia asteroides): 32 µg/mL (≈ 74.3 µM)
- MIC Range (Nocardia asteroides): 8 µg/mL (≈ 18.6 µM)
- MIC [5]: 1.56-3.12 μg/disk
- MBC Range (Lactobacillus spp.): 32 µg/mL (≈ 74.3 µM)
- MIC Range (Lactobacillus spp.): 16 µg/mL (≈ 37.2 µM)
- MIC Range (S. aureus ATCC 29213; [10]): 8 to 16 µg/mL
- MIC Range (S. aureus ATCC 29213; pH 7, range of 3 determinations): 8 µg/mL (≈ 18.6 µM)
- MIC Range (S. aureus ATCC 29213; [11]): 4 µg/mL (≈ 9.29 µM)
- MIC50 (Invasive S. pneumoniae; Streptococcus pneumoniae): 8 µg/mL (≈ 18.6 µM)
- MBC Range (Invasive S. pneumoniae; clinical isolates, 15 strains): 8 to 64 µg/mL
- share of strains with MBC/MIC ratios ≦2 (Invasive S. pneumoniae; invasive S. pneumoniae): 93%
- MBC Range (Listeria monocytogenes): 32 to 64 µg/mL
- MIC Range (Listeria monocytogenes): 16 to 32 µg/mL
- MBC Range (C. sputi): 32 µg/mL (≈ 74.3 µM)
- MIC Range (C. sputi; read at 72 h): 8 µg/mL (≈ 18.6 µM)
- MBC [6]: 16 µg/mL (≈ 37.2 µM)
- MIC [6]: 16 µg/mL (≈ 37.2 µM)
- MIC Range [7, 10]: 32 µg/mL (≈ 74.3 µM)
- MIC Range [7, 11]: 16 µg/mL (≈ 37.2 µM)
- MBC Range (B. circulans): >64 µg/mL
- MIC Range (B. circulans): 16 µg/mL (≈ 37.2 µM)
- MBC Range [8]: 8 µg/mL (≈ 18.6 µM)
- MIC Range [8]: 4 to 8 µg/mL
- MIC [9]: >100 μg/disk

— patent US20030216361A1, “Therapeutic compositions effective against gram positive bacteria” (priority 2000, published 2003)
